This passage reports IC50 results from ChEMBL document CHEMBL5729103, “Thienopyrazine carboxamides as ubiquitin-specific protease inhibitors” (2022).

This test addresses T1, Ubiquitin carboxyl-terminal hydrolase 28 (Homo sapiens, UniProt Q96RU2).
T1 sequence (Q96RU2 whole entry): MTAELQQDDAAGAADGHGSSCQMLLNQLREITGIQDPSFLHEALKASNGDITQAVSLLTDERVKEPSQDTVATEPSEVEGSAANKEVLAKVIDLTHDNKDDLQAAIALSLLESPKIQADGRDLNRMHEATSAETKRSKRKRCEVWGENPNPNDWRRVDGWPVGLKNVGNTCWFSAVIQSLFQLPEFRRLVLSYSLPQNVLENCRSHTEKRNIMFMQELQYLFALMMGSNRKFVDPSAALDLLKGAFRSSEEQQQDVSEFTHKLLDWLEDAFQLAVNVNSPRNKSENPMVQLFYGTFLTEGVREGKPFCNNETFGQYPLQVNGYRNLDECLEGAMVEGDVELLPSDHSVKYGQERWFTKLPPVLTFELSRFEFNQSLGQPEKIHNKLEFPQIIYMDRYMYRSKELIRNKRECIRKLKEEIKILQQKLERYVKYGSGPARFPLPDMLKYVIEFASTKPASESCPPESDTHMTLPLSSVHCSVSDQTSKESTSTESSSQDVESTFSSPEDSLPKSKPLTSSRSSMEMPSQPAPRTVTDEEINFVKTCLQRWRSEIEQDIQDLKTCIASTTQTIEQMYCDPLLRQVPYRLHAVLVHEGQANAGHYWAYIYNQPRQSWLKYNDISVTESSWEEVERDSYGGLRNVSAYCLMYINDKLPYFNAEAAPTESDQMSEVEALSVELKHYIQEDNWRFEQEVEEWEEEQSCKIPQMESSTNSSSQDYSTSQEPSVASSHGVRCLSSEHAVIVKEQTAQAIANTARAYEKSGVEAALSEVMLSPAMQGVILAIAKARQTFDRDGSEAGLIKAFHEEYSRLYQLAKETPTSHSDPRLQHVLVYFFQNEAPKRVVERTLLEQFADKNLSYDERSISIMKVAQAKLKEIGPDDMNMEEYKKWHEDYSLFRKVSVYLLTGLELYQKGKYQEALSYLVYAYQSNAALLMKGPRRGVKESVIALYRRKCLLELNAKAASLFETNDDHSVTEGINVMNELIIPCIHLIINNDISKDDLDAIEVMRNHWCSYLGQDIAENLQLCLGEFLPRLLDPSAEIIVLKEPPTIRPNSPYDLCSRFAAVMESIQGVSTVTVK
Description: Biochemical Assay: Ubiquitin-Rhodamine 110 Assay for USP28 Activity: Each assay was performed in a final volume of 20 μL in assay buffer containing 20 mM Tris-HCl (pH 8.0, (1M Tris-HCl, pH 8.0 solution; Corning 46-031-CM)), 2 mM CaCl2 (1M Calcium Chloride solution; Sigma #21114) 2 mM BME (2-Mercaptoethanol; Sigma 63689-25ML-F), 0.01% Prionex (0.22 μM filtered, Sigma #G-0411), and 0.01% Triton X-100. Stock compound solutions were stored at −20° C. as 10 mM in DMSO. Up to 1 month prior to the assay, 2 mM test compounds were pre-dispensed into assay plates (Black, low volume; Corning #3820) and frozen at −20° C. Prestamped assay plates were allowed to come to room temperature on the day of the assay. For the screen, 100 nL of 2 mM was pre-dispensed for a final screening concentration of 10 μM (DMSO(fc)=0.5%). […].

For orientation: IC50 means the concentration needed to halve the response being measured. In the case of `Cc1cnc2c(N)c(C(=O)NCCc3ccc(N4CC5CCC(C4)N5)cc3)sc2n1`, the half-inhibitory concentration (IC50) was under 200 nM.
